Measured values taken from article PMC9221290, “Alkaloids of Dicranostigma franchetianum (Papaveraceae) and Berberine Derivatives as a New Class of Antimycobacterial Agents” (Biomolecules, 2022).

System: HepG2 cells
Test: not given
Settings: not given
In the case of `COc1ccc2cc3[n+](cc2c1OCc1ccc(Br)cc1)CCc1cc2c(cc1-3)OCO2` [16g, 9-O-(4-brombenzyl)berberine chloride], the “SI (selectivity index)” value is reported as 2.89.

System: not listed separately
Test: in vitro
Settings: human, % of cell viability compared to control, 1. measurement, HepG2, 1 µM
With `COc1ccc2cc3[n+](cc2c1OCc1ccc(Br)cc1)CCc1cc2c(cc1-3)OCO2` [16g, 9-O-(4-brombenzyl)berberine chloride] the viability at 1 µM was 101%.

Same assay, conditions: human, % of cell viability compared to control, 1. measurement, HepG2, 5 µM
`COc1ccc2cc3[n+](cc2c1OCc1ccc(Br)cc1)CCc1cc2c(cc1-3)OCO2` [16g, 9-O-(4-brombenzyl)berberine chloride] showed a viability at 5 µM of 70.1%.

Same assay, conditions: human, % of cell viability compared to control, 1. measurement, HepG2, 10 µM
Molecule `COc1ccc2cc3[n+](cc2c1OCc1ccc(Br)cc1)CCc1cc2c(cc1-3)OCO2` [16g, 9-O-(4-brombenzyl)berberine chloride] has a viability at 10 µM of 53.9%.

Same assay, conditions: human, % of cell viability compared to control, 1. measurement, HepG2, 25 µM
Molecule `COc1ccc2cc3[n+](cc2c1OCc1ccc(Br)cc1)CCc1cc2c(cc1-3)OCO2` [16g, 9-O-(4-brombenzyl)berberine chloride] has a viability at 25 µM of 46.7%.

Same assay, conditions: human, % of cell viability compared to control, 1. measurement, HepG2, 50 µM
`COc1ccc2cc3[n+](cc2c1OCc1ccc(Br)cc1)CCc1cc2c(cc1-3)OCO2` [16g, 9-O-(4-brombenzyl)berberine chloride] gave a viability at 50 µM of 42.5%.

Same assay, conditions: human, % of cell viability compared to control, 1. measurement, HepG2, 75 µM
Work on `COc1ccc2cc3[n+](cc2c1OCc1ccc(Br)cc1)CCc1cc2c(cc1-3)OCO2` [16g, 9-O-(4-brombenzyl)berberine chloride] yielded a viability at 75 µM of 25.8%.

Same assay, conditions: human, % of cell viability compared to control, 1. measurement, HepG2, 100 µM
`COc1ccc2cc3[n+](cc2c1OCc1ccc(Br)cc1)CCc1cc2c(cc1-3)OCO2` [16g, 9-O-(4-brombenzyl)berberine chloride] gave a viability at 100 µM of 17.9%.

Same assay, conditions: human, % of cell viability compared to control, 2. measurement, HepG2, 1 µM
In the case of `COc1ccc2cc3[n+](cc2c1OCc1ccc(Br)cc1)CCc1cc2c(cc1-3)OCO2` [16g, 9-O-(4-brombenzyl)berberine chloride], the viability at 1 µM is reported as 96.5%.

Same assay, conditions: human, % of cell viability compared to control, 2. measurement, HepG2, 5 µM
`COc1ccc2cc3[n+](cc2c1OCc1ccc(Br)cc1)CCc1cc2c(cc1-3)OCO2` [16g, 9-O-(4-brombenzyl)berberine chloride] showed a viability at 5 µM of 76.3%.

Same assay, conditions: human, % of cell viability compared to control, 2. measurement, HepG2, 10 µM
`COc1ccc2cc3[n+](cc2c1OCc1ccc(Br)cc1)CCc1cc2c(cc1-3)OCO2` [16g, 9-O-(4-brombenzyl)berberine chloride] gave a viability at 10 µM of 59.4%.

Same assay, conditions: human, % of cell viability compared to control, 2. measurement, HepG2, 25 µM
Molecule `COc1ccc2cc3[n+](cc2c1OCc1ccc(Br)cc1)CCc1cc2c(cc1-3)OCO2` [16g, 9-O-(4-brombenzyl)berberine chloride] has a viability at 25 µM of 44.7%.

Same assay, conditions: human, % of cell viability compared to control, 2. measurement, HepG2, 50 µM
In the case of `COc1ccc2cc3[n+](cc2c1OCc1ccc(Br)cc1)CCc1cc2c(cc1-3)OCO2` [16g, 9-O-(4-brombenzyl)berberine chloride], the viability at 50 µM is reported as 47.8%.

Same assay, conditions: human, % of cell viability compared to control, 2. measurement, HepG2, 75 µM
With `COc1ccc2cc3[n+](cc2c1OCc1ccc(Br)cc1)CCc1cc2c(cc1-3)OCO2` [16g, 9-O-(4-brombenzyl)berberine chloride] the viability at 75 µM was 40.7%.

Same assay, conditions: human, % of cell viability compared to control, 2. measurement, HepG2, 100 µM
`COc1ccc2cc3[n+](cc2c1OCc1ccc(Br)cc1)CCc1cc2c(cc1-3)OCO2` [16g, 9-O-(4-brombenzyl)berberine chloride] gave a viability at 100 µM of 23.9%.

Same assay, conditions: human, % of cell viability compared to control, 3. measurement, HepG2, 1 µM
Work on `COc1ccc2cc3[n+](cc2c1OCc1ccc(Br)cc1)CCc1cc2c(cc1-3)OCO2` [16g, 9-O-(4-brombenzyl)berberine chloride] yielded a viability at 1 µM of 85%.

Same assay, conditions: human, % of cell viability compared to control, 3. measurement, HepG2, 5 µM
`COc1ccc2cc3[n+](cc2c1OCc1ccc(Br)cc1)CCc1cc2c(cc1-3)OCO2` [16g, 9-O-(4-brombenzyl)berberine chloride] showed a viability at 5 µM of 72.1%.

Same assay, conditions: human, % of cell viability compared to control, 3. measurement, HepG2, 10 µM
For `COc1ccc2cc3[n+](cc2c1OCc1ccc(Br)cc1)CCc1cc2c(cc1-3)OCO2` [16g, 9-O-(4-brombenzyl)berberine chloride], the viability at 10 µM was 56.6%.

Same assay, conditions: human, % of cell viability compared to control, 3. measurement, HepG2, 25 µM
With `COc1ccc2cc3[n+](cc2c1OCc1ccc(Br)cc1)CCc1cc2c(cc1-3)OCO2` [16g, 9-O-(4-brombenzyl)berberine chloride] the viability at 25 µM was 45.8%.

Same assay, conditions: human, % of cell viability compared to control, 3. measurement, HepG2, 50 µM
Molecule `COc1ccc2cc3[n+](cc2c1OCc1ccc(Br)cc1)CCc1cc2c(cc1-3)OCO2` [16g, 9-O-(4-brombenzyl)berberine chloride] has a viability at 50 µM of 45.5%.

Same assay, conditions: human, % of cell viability compared to control, 3. measurement, HepG2, 75 µM
In the case of `COc1ccc2cc3[n+](cc2c1OCc1ccc(Br)cc1)CCc1cc2c(cc1-3)OCO2` [16g, 9-O-(4-brombenzyl)berberine chloride], the viability at 75 µM is reported as 26%.

Same assay, conditions: human, % of cell viability compared to control, 3. measurement, HepG2, 100 µM
With `COc1ccc2cc3[n+](cc2c1OCc1ccc(Br)cc1)CCc1cc2c(cc1-3)OCO2` [16g, 9-O-(4-brombenzyl)berberine chloride] the viability at 100 µM was 14%.

System: Mycobacterium kansasii DSM 44162 (ATCC 12478)
Test: Antimycobacterial microdilution broth assay (resazurin), M. kansasii
Format: cell-based
Settings: Mycobacterium kansasii, 96 h, read-out: MIC M. kansasii, microdilution broth, resazurin, 96 h
`COc1ccc2cc3[n+](cc2c1OCc1ccc(Br)cc1)CCc1cc2c(cc1-3)OCO2` [16g, 9-O-(4-brombenzyl)berberine chloride] gave an MIC of 0.98 µg/mL.

System: Mtb H37Ra ITM-M006710 (ATCC 9431)
Test: Antimycobacterial microdilution broth assay (resazurin), Mtb H37Ra
Format: cell-based, Mycobacterium tuberculosis
Settings: Mycobacterium tuberculosis, 120 h, microdilution broth, resazurin, 120 h; read-out: MIC Mtb H37Ra
Work on `COc1ccc2cc3[n+](cc2c1OCc1ccc(Br)cc1)CCc1cc2c(cc1-3)OCO2` [16g, 9-O-(4-brombenzyl)berberine chloride] yielded an MIC of 3.91 µg/mL.

Same assay, conditions: Mycobacterium tuberculosis, calculated from MIC (µg/mL) and MW; read-out: MIC Mtb H37Ra
`COc1ccc2cc3[n+](cc2c1OCc1ccc(Br)cc1)CCc1cc2c(cc1-3)OCO2` [16g, 9-O-(4-brombenzyl)berberine chloride] gave an MIC of 7.42 µM.

System: Mycolicibacterium aurum DSM 43999 (ATCC 23366)
Test: Antimycobacterial microdilution broth assay (resazurin), M. aurum
Format: cell-based
Settings: Mycolicibacterium aurum, 72 h, read-out: MIC M. aurum, microdilution broth, resazurin, 72 h
Work on `COc1ccc2cc3[n+](cc2c1OCc1ccc(Br)cc1)CCc1cc2c(cc1-3)OCO2` [16g, 9-O-(4-brombenzyl)berberine chloride] yielded an MIC of 3.91 µg/mL.

System: Mycobacterium avium DSM 44156 (ATCC 25291)
Test: Antimycobacterial microdilution broth assay (resazurin), M. avium
Format: cell-based
Settings: Mycobacterium avium, 96 h, read-out: MIC M. avium, microdilution broth, resazurin, 96 h
Work on `COc1ccc2cc3[n+](cc2c1OCc1ccc(Br)cc1)CCc1cc2c(cc1-3)OCO2` [16g, 9-O-(4-brombenzyl)berberine chloride] yielded an MIC of 1.98 µg/mL.

System: Mycolicibacterium smegmatis DSM 43465 (ATCC 607)
Test: Antimycobacterial microdilution broth assay (resazurin), M. smegmatis
Format: cell-based
Settings: Mycolicibacterium smegmatis, 48 h, read-out: MIC M. smegmatis, microdilution broth, resazurin, 48 h
Molecule `COc1ccc2cc3[n+](cc2c1OCc1ccc(Br)cc1)CCc1cc2c(cc1-3)OCO2` [16g, 9-O-(4-brombenzyl)berberine chloride] has an MIC of 0.98 µg/mL.

System: HepG2 cells
Test: cells
Settings: Homo sapiens, HepG2, 24 h, read-out: HepG2 IC50, 1. measurement, MTT, 24 h, single measurement 1
With `COc1ccc2cc3[n+](cc2c1OCc1ccc(Br)cc1)CCc1cc2c(cc1-3)OCO2` [16g, 9-O-(4-brombenzyl)berberine chloride] the IC50 was 19.2 µM.

Same assay, conditions: Homo sapiens, HepG2, 24 h, read-out: HepG2 IC50, 2. measurement, MTT, 24 h, single measurement 2
Molecule `COc1ccc2cc3[n+](cc2c1OCc1ccc(Br)cc1)CCc1cc2c(cc1-3)OCO2` [16g, 9-O-(4-brombenzyl)berberine chloride] has an IC50 of 26.9 µM.

Same assay, conditions: Homo sapiens, HepG2, 24 h, read-out: HepG2 IC50, 3. measurement, MTT, 24 h, single measurement 3
`COc1ccc2cc3[n+](cc2c1OCc1ccc(Br)cc1)CCc1cc2c(cc1-3)OCO2` [16g, 9-O-(4-brombenzyl)berberine chloride] showed an IC50 of 18.2 µM.

Same assay, conditions: Homo sapiens, HepG2, 24 h, read-out: HepG2 IC50, MTT, 24 h incubation
With `COc1ccc2cc3[n+](cc2c1OCc1ccc(Br)cc1)CCc1cc2c(cc1-3)OCO2` [16g, 9-O-(4-brombenzyl)berberine chloride] the IC50 was 21.4 ± 4.8 µM.
